“And” between values parts separate entries of the source, which are not always exact repeats. Equal entries are not always repeated. Where two headings read alike, the source gives them in different places.
Columns and labels:
HDAC5FL = HDAC5FL (Homo sapiens, UniProt Q9UQL6); test: HDAC5FL activity assay (fluorescence)
[1] = system: HDAC 1, 3, 5, 6, 7, 8, 10, 11, and sirt1-2; test: HDAC activity assays, summary over the panel; type: biochemical; settings: HDAC 1, 3, 5, 6, 7, 8, 10, 11, sirt1-2
Description: Assay Conditions. A series of dilution of the test compounds were prepared with 10% DMSO in assay buffer and 5 μl of the dilution was added to a 50 μl reaction so that the final concentration of DMSO is 1% in all of reactions. All of the enzymatic reactions were conducted in duplicate at 37° C. for 30 minutes except of HDAC11 at room temperature for 3 hours. The 50 μl reaction mixture contains HDAC assay buffer, 5 μg BSA, an HDAC substrate, an HDAC enzyme and a test compound. After enzymatic reactions, 50 μl of HDAC Developer was added to each well and the plate was incubated at room temperature for an additional 20 minutes. Fluorescence intensity was measured at an excitation of 360 nm and an emission of 460 nm using a Tecan Infinite M1000 microplate reader.
Data Analysis. HDAC activity assays were performed in duplicates at each concentration. The fluorescent intensity data were analyzed using the computer software, Graphpad Prism. In the absence of the compound, the fluorescent intensity (Ft) in each data set was defined as 100% activity. In the absence of HDAC, the fluorescent intensity (Fb) in each data set was defined as 0% activity. […] The percent activity in the presence of each compound was calculated according to the following equation: % activity=(F−Fb)/(Ft−Fb), where F=the fluorescent intensity in the presence of the compound. […]

Oral pharmacokinetics = type: in vivo; settings: for Kp: brain/plasma
human GCN5 = human GCN5 (Homo sapiens, UniProt Q92830); test: GCN5 activation, in vitro assay; type: biochemical
[2] = system: mouse model of Alzheimer's disease; test: Memory deficits in a mouse model of Alzheimer's disease; type: in vivo
[3] = Acute toxicity experiments; type: in vivo; settings: i.p.
[4] = system: ACH3 (acetylated histone H3); test: Western blotting for ACH3 in hippocampus after administration; type: in vivo, mice
Description: Two and four hrs after its administration, the mice were sacrificed and hippocampi were extracted. […] Purity was verified through Nuclear Magnetic Resonance (NMR) spectroscopy. […] Hippocampus extraction was made at 3 different time points (0.5, 1 and 2 hrs post treatment). A western blotting for ACH3 was then performed.

HDAC3/NCOR2 = HDAC3/NCOR2 (Homo sapiens, UniProt O15379); test: HDAC3/NCOR2 activity assay (fluorescence); settings: Repeat1/Repeat2
[5] = Kinetics in blood sampled from tails; type: in vivo, mice; settings: 20 mg/kg i.p.
BDNF = BDNF levels in hippocampi of Aβ-infused mice; type: in vivo; settings: for hippocampal BDNF levels after Aβ infusion: 20 mg/kg, i.p., 90 min before harvesting, Aβ-infused mice
Source text: 3(1): p. 12-29; Caccamo, A., et al., CBP gene transfer increases BDNF levels and ameliorates learning and memory deficits in a mouse model of Alzheimer's disease. Proc Natl Acad Sci USA, 2010. 107(52): p. 22687-92; each herein incorporated by reference in its entirety). […] The Journal of Neuroscience: The Official Journal of the Society for Neuroscience, 2007. 27(10): p. 2628-35; each herein incorporated by reference in its entirety). Thus, preliminary studies on Compound 1 efficacy were extended to BDNF. BDNF levels in the hippocampi of Aβ-infused mice were measured compared to vehicle infused animals. Consistent with the decrease in BDNF levels in brains of AD patients and animal models of AD, a reduction of BDNF levels following Aβ infusion was found (FIG. 23).

Chain of HDAC3/NCOR2 (O15379 whole entry): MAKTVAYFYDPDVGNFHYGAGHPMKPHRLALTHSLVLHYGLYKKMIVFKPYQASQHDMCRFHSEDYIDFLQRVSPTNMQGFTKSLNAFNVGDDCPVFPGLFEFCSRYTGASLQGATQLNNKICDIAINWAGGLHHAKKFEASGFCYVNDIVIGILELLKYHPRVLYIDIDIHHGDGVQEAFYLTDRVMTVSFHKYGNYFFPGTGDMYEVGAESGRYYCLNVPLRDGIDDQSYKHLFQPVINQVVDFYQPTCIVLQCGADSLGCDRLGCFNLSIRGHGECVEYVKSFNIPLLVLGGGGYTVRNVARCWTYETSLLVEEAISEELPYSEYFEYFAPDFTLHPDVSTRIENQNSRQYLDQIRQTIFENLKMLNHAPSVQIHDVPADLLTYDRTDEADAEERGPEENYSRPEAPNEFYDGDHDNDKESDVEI
Chain of HDAC3/NCOR2 (Q9Y618 395-489 partner limits assumed): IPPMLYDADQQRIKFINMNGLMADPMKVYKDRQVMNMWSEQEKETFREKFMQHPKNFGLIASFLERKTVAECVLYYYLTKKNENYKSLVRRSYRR
Chain of human GCN5 (Q92830 whole entry): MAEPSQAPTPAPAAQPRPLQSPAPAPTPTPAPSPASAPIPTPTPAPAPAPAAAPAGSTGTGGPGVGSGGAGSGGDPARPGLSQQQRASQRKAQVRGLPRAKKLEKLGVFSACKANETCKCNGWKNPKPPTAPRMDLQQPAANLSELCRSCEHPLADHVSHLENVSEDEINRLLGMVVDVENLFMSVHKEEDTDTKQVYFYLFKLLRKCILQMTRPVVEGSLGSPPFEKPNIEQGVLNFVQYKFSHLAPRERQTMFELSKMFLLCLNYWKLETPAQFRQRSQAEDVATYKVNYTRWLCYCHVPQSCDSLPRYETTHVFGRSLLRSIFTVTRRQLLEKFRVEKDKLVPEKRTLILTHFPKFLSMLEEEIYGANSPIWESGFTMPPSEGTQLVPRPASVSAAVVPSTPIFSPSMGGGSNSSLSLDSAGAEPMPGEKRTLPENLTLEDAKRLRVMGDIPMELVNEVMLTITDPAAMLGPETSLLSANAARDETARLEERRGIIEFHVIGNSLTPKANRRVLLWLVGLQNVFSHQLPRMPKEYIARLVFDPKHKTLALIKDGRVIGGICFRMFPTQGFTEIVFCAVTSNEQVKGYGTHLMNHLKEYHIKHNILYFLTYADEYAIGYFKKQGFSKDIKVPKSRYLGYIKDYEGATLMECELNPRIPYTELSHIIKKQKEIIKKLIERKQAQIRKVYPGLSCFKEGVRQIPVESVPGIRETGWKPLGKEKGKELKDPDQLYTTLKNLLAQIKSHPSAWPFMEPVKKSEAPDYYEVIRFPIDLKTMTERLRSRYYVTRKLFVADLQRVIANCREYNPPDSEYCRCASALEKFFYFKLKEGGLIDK
Chain of HDAC5FL (Q9UQL6 whole entry): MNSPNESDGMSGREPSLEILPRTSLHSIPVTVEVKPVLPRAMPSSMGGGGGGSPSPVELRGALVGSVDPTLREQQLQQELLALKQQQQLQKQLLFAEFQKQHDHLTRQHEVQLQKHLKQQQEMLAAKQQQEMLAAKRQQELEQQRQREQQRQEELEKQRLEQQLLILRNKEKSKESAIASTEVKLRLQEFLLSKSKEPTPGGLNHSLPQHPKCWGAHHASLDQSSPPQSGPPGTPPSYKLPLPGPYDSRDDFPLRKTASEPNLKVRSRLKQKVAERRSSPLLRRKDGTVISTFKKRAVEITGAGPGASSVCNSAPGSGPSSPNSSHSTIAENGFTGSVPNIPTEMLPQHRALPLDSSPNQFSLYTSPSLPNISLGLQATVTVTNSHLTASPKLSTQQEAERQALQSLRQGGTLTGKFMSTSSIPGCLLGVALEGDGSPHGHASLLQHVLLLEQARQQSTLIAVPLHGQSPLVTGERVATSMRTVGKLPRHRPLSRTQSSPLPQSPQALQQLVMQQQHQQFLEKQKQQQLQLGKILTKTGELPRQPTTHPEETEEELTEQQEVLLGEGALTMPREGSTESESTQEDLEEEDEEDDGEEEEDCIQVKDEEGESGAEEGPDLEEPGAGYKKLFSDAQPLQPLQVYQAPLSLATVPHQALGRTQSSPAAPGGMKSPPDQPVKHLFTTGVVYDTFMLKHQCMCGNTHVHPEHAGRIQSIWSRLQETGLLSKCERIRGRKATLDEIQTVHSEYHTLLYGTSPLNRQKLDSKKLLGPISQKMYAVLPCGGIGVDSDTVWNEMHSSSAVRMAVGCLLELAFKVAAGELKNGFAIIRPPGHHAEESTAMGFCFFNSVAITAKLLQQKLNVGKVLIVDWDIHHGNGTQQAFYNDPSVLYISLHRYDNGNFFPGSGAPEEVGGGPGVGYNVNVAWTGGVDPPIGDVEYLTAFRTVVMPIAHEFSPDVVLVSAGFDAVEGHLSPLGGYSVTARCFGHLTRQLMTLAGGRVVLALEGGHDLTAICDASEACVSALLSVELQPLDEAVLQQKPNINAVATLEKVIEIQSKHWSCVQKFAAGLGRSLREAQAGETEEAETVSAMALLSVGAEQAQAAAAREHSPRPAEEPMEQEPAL

## CCOc1cccc(OCCN(C)C)c1C(=O)Nc1ccc(Cl)c(C(F)(F)F)c1 [Compound 1]
HDAC5FL
  IC50: > 200 µM
HDAC5FL; Compound 1 Log [nM] 3.0, Repeat1/Repeat2
  % Activity (HDAC5FL): 99.80%
[1]
  HDAC inhibition (in words): does not inhibit HDACs
[1]; listed as compound 1
  HDAC inhibition (in words): did not interfere with p300 and HDAC activity
Oral pharmacokinetics; po, read-out: AUC0-t ratio brain/plasma
  Kp: 6.6
Oral pharmacokinetics; po, read-out: AUC0-∞ ratio brain/plasma
  Kp: 6.5
Oral pharmacokinetics; po, read-out: Cmax ratio brain/plasma
  Kp: 5.7
Oral pharmacokinetics; dosed orally, FIG. 17
  amount in the brain compared with plasma: higher than that in the plasma
Oral pharmacokinetics; oral, brain
  AUC0-t: 2149 ng·h/g
  AUC0-∞: 2159 ng·h/g
  Cmax: 1010 ng/g
  MRT: 1.68 h
  Tmax: 1 h
Oral pharmacokinetics; oral, brain, read-out: t1/2 (converted)
  half-life: 0.99 h
Oral pharmacokinetics; oral, plasma
  AUC(0-inf): 330 ng·h/mL
  Cmax: 177 ng/mL
  MRT: 1.5 h
  Tmax: 0.5 h
Oral pharmacokinetics; oral, plasma, read-out: AUC0-t
  AUC0-t: 328 ng·h/mL
Oral pharmacokinetics; oral, plasma, read-out: t1/2 (converted)
  half-life: 1.06 h
Oral pharmacokinetics; po, brain and plasma, read-out: elimination half-lives in the brain and plasma
  half-life: ~1 h
Human GCN5
  EC50: 49.3 µM and 65.2 µM
[2]
  memory deficits: ameliorate memory deficits
[3]
  dose without any adverse effects, acute toxicity: up to 300 mg/kg
[4]; 50 mg/kg i.p., 2 and 4 hrs, FIG. 1
  ACH3 in hippocampus: increase ACH3
[4]; 5, 10, 20 mg/Kg i.p. in saline, 0.5, 1, 2 hrs, except 1 hr-10 mg/kg, FIG. 2
  ACH3 levels in hippocampus: dramatically increased ACH3 levels
HDAC3/NCOR2; Compound 1 Log [nM] 0.5
  % Activity (HDAC3/NCOR2): 102.35% and 89.76%
HDAC3/NCOR2; Compound 1 Log [nM] 1.0
  % Activity (HDAC3/NCOR2): 98.01% and 97.56%
HDAC3/NCOR2; Compound 1 Log [nM] 1.5
  % Activity (HDAC3/NCOR2): 101.44% and 96.12%
HDAC3/NCOR2; Compound 1 Log [nM] 2.0
  % Activity (HDAC3/NCOR2): 102.25% and 94.61%
HDAC3/NCOR2; Compound 1 Log [nM] 2.5
  % Activity (HDAC3/NCOR2): 101.07% and 95.51%
HDAC3/NCOR2; Compound 1 Log [nM] 3.0
  % Activity (HDAC3/NCOR2): 99.62% and 94.38%
HDAC3/NCOR2; Compound 1 Log [nM] 3.5
  % Activity (HDAC3/NCOR2): 97.14% and 94.27%
HDAC3/NCOR2; Compound 1 Log [nM] 4.0
  % Activity (HDAC3/NCOR2): 108.31% and 94.90%
HDAC3/NCOR2; Compound 1 Log [nM] 4.5
  % Activity (HDAC3/NCOR2): 87.66% and 88.97%
HDAC3/NCOR2; Compound 1 Log [nM] 5.3
  % Activity (HDAC3/NCOR2): 89.40% and 102.23%
[5]
  time of peak in blood post-injection: around 30 minutes
BDNF
  hippocampal BDNF levels after Aβ infusion: rescued
BDNF; listed as YF2
  hippocampal BDNF levels after Aβ infusion: rescued Aβ-induced decrease in hippocampal BDNF levels
BDNF; vehicle-infused mice
  hippocampal BDNF levels: increased BDNF levels

Reference: US9809532B2, “Uses of histone acetyltransferase activators” (THE TRUSTEES OF COLUMBIA UNIVERSITY IN THE CITY OF NEW YORK, priority 2011, dated 2017)
